No end group written: not given here.
Tests used:
hearts subjected to I/R = experiment: Ex vivo cardiac protection from ischemia/reperfusion (Langendorff; infarct size, CPK release); set-up: species or system rat
Experimental: (§1) An ex vivo model of acute ischemic heart damage was used, which involves a 30 min equilibration period, followed by 30 min of global ischemia, which in turn is followed by 60 min of reperfusion. The hearts were perfused with 1 μM TAT or TAT-conjugated peptide. Normoxic control hearts were subjected to 90 min perfusion in the absence of ischemia. Coronary effluent was collected to determine creatine phosphokinase (CPK) release during the first 30 min of the reperfusion period. At the end of the reperfusion period, hearts were sliced into 1-mm-thick transverse sections and incubated in triphenyltetrazolium chloride solution (TTC, 1% in phosphate buffer, pH 7.4) at 37° C. for 15 min. Infarct size was expressed as a percentage of the risk zone (equivalent to total LV muscle mass) (methods described in Brandman et al., 2007, J. Biol. Chem., 282:4113-4123; Inagaki et al., 2003, Circulation, 108:869-875). […]
(§2) First, I/R-induced infarct size after treatment with ΨPDK or δV1-1 (Inagaki et al., 2003, Circulation, 108:869-875), was smaller than that in hearts treated with the control peptide or with ΨδRACK, the δPKC-specific activator or with δV1-5 (FIG. 6A). Second, similar data were obtained when determining the levels of released creatine phosphokinase (CPK), as a marker of myocardial infarction; CPK levels in the ΨPDK- or δV1-1-treated hearts were similar and were lower than those after treatment with control peptide, ΨδRACK or δV1-5 (FIG. 6B).
(§3) To begin determining the contribution of each of the amino acids on the effect of the peptide, Alanine scanning was used (Brunel et al., 2006, J. Virol., 80:1680-1687; Chen et al., J. Pep. Res., 2000, 56:147-156; Brems et al., 1992, Prot. Eng., 5:527-533) (substituting individual amino acid with an alanine). The resultant ΨPDK peptide analogs were then used in the same model of myocardial infarction, using CPK release and JNK phosphorylation as markers for cardiac injury. CPI release into the perfusates and pJNK in the hearts were determined after I/R in the presence of respective peptides and compared to the levels in hearts subjected to I/R in the presence of the control peptide. None of the peptides having a substitution had any significant biological activity (Table 1).

PDK2 = experiment: 2-D IEF phosphorylation of PDK2 in hearts after I/R; set-up: species or system rat; conditions: cardiac I/R
Experimental: as §1
As described above, δPKC phosphorylation of PDK following cardiac ischemia and reperfusion leads to the phosphorylation and a decline in the activity of pyruvate dehydrogenase (PDH) (Churchill et al., 2005, Circ. Res., 97:78-85). […] Since ΨPDK is derived from the PDK homologous sequence in δPKC, it was next determined whether PDK phosphorylation is affected by ΨPDK treatment.

JNK = JNK phosphorylation in hearts subjected to I/R (Western blot); set-up: species or system rat
Experimental: (§4) An ex vivo model of acute ischemic heart damage was used, which involves a 30 min equilibration period, followed by 30 min of global ischemia, which in turn is followed by 60 min of reperfusion. The hearts were perfused with 1 μM TAT or TAT-conjugated peptide. Normoxic control hearts were subjected to 90 min perfusion in the absence of ischemia. Coronary effluent was collected to determine creatine phosphokinase (CPK) release during the first 30 min of the reperfusion period. At the end of the reperfusion period, hearts were sliced into 1-mm-thick transverse sections and incubated in triphenyltetrazolium chloride solution (TTC, 1% in phosphate buffer, pH 7.4) at 37° C. for 15 min. Infarct size was expressed as a percentage of the risk zone (equivalent to total LV muscle mass) (methods described in Brandman et al., 2007, J. Biol. Chem., 282:4113-4123; Inagaki et al., 2003, Circulation, 108:869-875).
(§5) Rat hearts were homogenized in a buffer containing 210 mM mannitol, 70 mM sucrose, 5 mM MOPS and 1 mM EDTA followed by isolation of the mitochondria fraction (described in Churchill et al., 2008, J. Mol. Cell. Cardiol., 46:278-284) and identified by the presence of VDAC (MitoSciences, Eugene, Oreg., USA). The level of phosphorylated and unphosphorylated JNK1/2 was analyzed in the total fraction using respective specific antibodies (Cell Signaling, Danvers, Mass. and Santa Cruz Biotechnology, CA, USA).
as §2, §3

δPKC = target: T1, δPKC (Rattus norvegicus, UniProt P09215); experiment: δPKC translocation into mitochondria in intact hearts (ex vivo I/R)
T1 construct: from tissue; host or cells: rat heart (ex vivo ischemia/reperfusion), mitochondrial fraction
T1 sequence (P09215 whole entry, the tested form may be a part): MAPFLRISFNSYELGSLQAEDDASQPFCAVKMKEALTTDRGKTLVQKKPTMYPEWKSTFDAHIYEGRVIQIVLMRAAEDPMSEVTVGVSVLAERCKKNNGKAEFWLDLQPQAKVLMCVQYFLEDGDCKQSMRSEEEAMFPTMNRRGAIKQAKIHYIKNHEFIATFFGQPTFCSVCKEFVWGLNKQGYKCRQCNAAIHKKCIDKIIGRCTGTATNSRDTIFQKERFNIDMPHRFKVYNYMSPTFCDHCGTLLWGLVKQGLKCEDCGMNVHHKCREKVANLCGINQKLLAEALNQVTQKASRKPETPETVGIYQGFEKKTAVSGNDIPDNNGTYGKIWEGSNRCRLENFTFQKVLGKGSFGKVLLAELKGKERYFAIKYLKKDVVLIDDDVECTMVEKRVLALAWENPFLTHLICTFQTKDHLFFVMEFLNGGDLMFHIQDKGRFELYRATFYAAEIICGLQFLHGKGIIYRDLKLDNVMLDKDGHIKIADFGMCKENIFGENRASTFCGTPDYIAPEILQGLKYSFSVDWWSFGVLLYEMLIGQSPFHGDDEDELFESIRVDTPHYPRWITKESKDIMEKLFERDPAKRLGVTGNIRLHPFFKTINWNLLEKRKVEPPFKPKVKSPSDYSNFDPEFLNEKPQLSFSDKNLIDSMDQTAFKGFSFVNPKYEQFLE
Experimental: as §4
as §5, with “CA, USA). […]” for “CA, USA).”
Phosphorylation of the mitochondrial PDK by δPKC occurs only following myocardial infarction Under these conditions, δPKC translocates into the mitochondria (Churchill et al., 2005, Circ. Res., 97:78-85) where it has access to PDK. It was therefore first determined whether ΨPDK peptide affects δPKC translocation into the mitochondria. […] However, similar to the mitochondrial matrix protein, aldehyde dehydrogenase (ALDH2), the majority of δPKC was insensitive to proteolysis by PK (FIG. 4C; quantitated in FIG. 4D).

[1] = ex vivo I/R, vs control peptide, ΨδRACK or δV1-5

Substance: ALSTER (not fully specified (C-terminus); also: TAT47-57 conjugated via disulfide) [ΨPDK, for cells and hearts conjugated to TAT47-57 via disulfide bond]
- cardioprotection / biological activity in ex vivo I/R model (in words) (hearts subjected to I/R; CPK release and JNK phosphorylation as markers): exert cardio-protective effects
- CPK (u/L) (hearts subjected to I/R; ex vivo I/R, release into perfusate, 1 μM peptide): 335 ± 520 u/L
- CPK levels (in words) (hearts subjected to I/R; [1]): lower
- I/R-induced infarct size (hearts subjected to I/R; [1]): smaller
- phosphorylation of PDK2 (PDK2): did not occur
- p-JNK/total JNK (JNK; ex vivo I/R hearts, 1 μM peptide): 0.4 ± 0.10
- I/R-induced JNK phosphorylation (in words) (JNK; ex vivo I/R, vs δV1-5 and ΨδRACK): reduced I/R-induced JNK phosphorylation
- δPKC entry into the mitochondria (proteinase K resistance) (δPKC; following I/R): increased I/R-induced δPKC entry into the mitochondria
- δPKC association with the mitochondria (δPKC; following I/R, vs control peptide): two-fold increase
- δPKC translocation to the mitochondria (δPKC; normoxic condition): did not induce δPKC translocation to the mitochondria

From patent US10131691B2, “Compositions and methods for specific regulation of pyruvate dehydrogenase kinase” (THE BOARD OF TRUSTEES OF THE LELAND STANFORD JUNIOR …, priority 2011, dated 2018)
